# Data from paper PMC10349806 (Nature Communications, 2023).
# Values joined by “and” are separate entries in the source; they are usually repeats but may differ in a detail not shown here. Equal values may be shown once.
# Legend:
# Type in all cases: cell-based, Plasmodium falciparum
# PfCRT variant E207M = experiment: CQ uptake assay, oocytes expressing E207M
# Experimental: (§1) Site-directed mutagenesis of PfCRT^Dd2 was performed as described using the megaprimer method with overlap extension[21],[54]. The primer pairs used are listed in Supplementary Table 6. Please note that a codon-optimized and oocyte-adapted version of PfCRT^Dd2 was used[22] (Supplementary Fig. 16). The resulting DNA fragment was cloned into the SP64T expression vector and verified by sequencing.
# (§2) Oocytes were obtained as described previously. Briefly, adult (>2 years old) female X. laevis frogs (NASCO) were anesthetized in a cooled solution of ethyl 3-amino benzoate methanesulfonate (0.1%, w/v), followed by a surgical removal of parts of the ovary. The ovary lobes were carefully dissected and small pieces of oocytes were incubated in Ca^2+-free ND96 buffer (96 mM NaCl, 2 mM KCl, 1 mM MgCl2 buffered with 5 mM HEPES/NaOH, pH 7.5) supplemented with collagenase D (0.1%, w/v; Roche), BSA (0.5%, w/v), and 9 mm Na2HPO4 at 18 °C for 14-16 h while gentle shaking. After incubation, the oocytes were carefully washed several times with ND96 buffer (96 mM NaCl, 2 mM KCl, 1.8 mM CaCl2, 1 mM MgCl2 buffered with 5 mM HEPES/NaOH, pH 7.5) supplemented with 100 mg l^−1 gentamycin). Defolliculated and healthy-looking stage V-VI oocytes were manually selected for RNA microinjection. The RNA was generated as following: The codon-optimized sequences of PfCRT variants were cloned into the pSP64T expression vector. After vector linearization using the restriction endonucleases BamHI or SalI (New England Biolabs), transcription was performed using the in vitro SP6 mMessage mMachine Kit (Ambion)[34]. The obtained RNA was kept at −80 °C and diluted with nuclease-free water to a concentration of 0.6 μg μl^−1. Precision-bore glass capillary tubes (3.5-inch glass capillaries; Drummond Scientific Co.) were pulled on a vertical puller (P-87 Flaming/Brown micropipette puller, Sutter Instrument Co.), graduated, and placed on a microinjector (Nanoject II Auto-Nanoliter Injector, Drummond Scientific Co.). 50 nl of nuclease-free water alone (control oocytes) or 50 nl of 0.6 μg μl^−1 RNA were injected under stereomicroscopic control. Injected oocytes were incubated for 46–72 h at 18 °C with twice-daily buffer changes before usage in experiments.
# Drug uptake assays were performed as described previously[21],[22],[24],[34]. […] The direction of radio-labeled drug transport is here from the mostly acidic extracellular solution (pH 4.5 or 6.0, as indicated) into the oocyte cytosol (pH ∼ 7.2), which corresponds to the efflux of drug from the acidic digestive vacuole (pH 5.2) into the parasite cytoplasm (pH 7.2). The topology of PfCRT in the oolemma is such that both the N- and C-terminus face the extracellular milieu[3],[22]. In the parasite, the N- and C-terminus face the lumen of the digestive vacuole. CQ uptake kinetics were performed by incubating oocytes in ND96 buffer adjusted to a pH of 4.5, 5.0, 5.5, or 6.0 and supplemented with 50 nM [^3H]CQ and one of 7 different CQ concentrations (10 µM, 50 µM, 100 µM, 200 µM, 300 µM, 400 µM, 500 µM CQ). The reaction was stopped at the 60 min time point, which is in the linear uptake range[22],[34] (Supplementary Fig. 17). For determination of the amount of drug uptake for each oocyte, the reaction medium was removed and the oocytes were washed three times with 2 ml of ice-cold ND96 buffer. Each oocyte was individually transferred to a scintillation vial containing 5% sodium dodecyl sulfate (200 μl) for lysis. The radioactivity of each sample was measured using a liquid scintillation analyzer Tri-Carb 4910 TR (PerkinElmer). Oocytes that were injected with water instead of RNA were analyzed in parallel, representing the uptake of a drug by diffusion and/or endogenous permeation pathways. The resulting value represents the “background“ level of drug accumulation in oocytes (in-depth discussion in[22]). […]
# PfCRT variant H180A = experiment: CQ uptake assay, oocytes expressing H180A
# Experimental: as §1, §2
# Drug uptake assays were performed as described previously[21],[22],[24],[34]. […] The direction of radio-labeled drug transport is here from the mostly acidic extracellular solution (pH 4.5 or 6.0, as indicated) into the oocyte cytosol (pH ∼ 7.2), which corresponds to the efflux of drug from the acidic digestive vacuole (pH 5.2) into the parasite cytoplasm (pH 7.2). The topology of PfCRT in the oolemma is such that both the N- and C-terminus face the extracellular milieu[3],[22]. In the parasite, the N- and C-terminus face the lumen of the digestive vacuole. CQ uptake kinetics were performed by incubating oocytes in ND96 buffer adjusted to a pH of 4.5, 5.0, 5.5, or 6.0 and supplemented with 50 nM [^3H]CQ and one of 7 different CQ concentrations (10 µM, 50 µM, 100 µM, 200 µM, 300 µM, 400 µM, 500 µM CQ). The reaction was stopped at the 60 min time point, which is in the linear uptake range[22],[34] (Supplementary Fig. 17). […] The radioactivity of each sample was measured using a liquid scintillation analyzer Tri-Carb 4910 TR (PerkinElmer). Oocytes that were injected with water instead of RNA were analyzed in parallel, representing the uptake of a drug by diffusion and/or endogenous permeation pathways. […]
# PfCRT variant R374A = experiment: CQ uptake assay, oocytes expressing R374A
# Experimental: as §1
# as §2, with “Precision-bore glass capillary tubes (3.5-inch glass capillaries; Drummond Scientific Co.) were pulled on a vertical puller (P-87 Flaming/Brown micropipette puller, Sutter Instrument Co.), graduated, and placed on a microinjector (Nanoject II Auto-Nanoliter Injector, Drummond Scientific Co.). 50 nl of nuclease-free water alone (control oocytes) or 50 nl of 0.6 μg μl^−1 RNA were injected under stereomicroscopic control. Injected oocytes were incubated for 46–72 h at 18 °C with twice-daily buffer changes before usage in experiments.” left out
# Drug uptake assays were performed as described previously[21],[22],[24],[34]. […] The radioactivity of each sample was measured using a liquid scintillation analyzer Tri-Carb 4910 TR (PerkinElmer). Oocytes that were injected with water instead of RNA were analyzed in parallel, representing the uptake of a drug by diffusion and/or endogenous permeation pathways. […]
# [1] = E207M, 50 µM CQ, 1 h, mean ± SEM
# [2] = H180A, 50 µM CQ, 1 h, mean ± SEM
compound,measurement,setting,value
"CCN(CC)CCCC(C)Nc1ccnc2cc(Cl)ccc12 (centres unmarked) [CQ, chloroquine]",Activity at pH 4.5,PfCRT variant E207M; [1],1.85 ± 0.27 pmol h-1 oocyte-1
same,Activity at pH 6.0,PfCRT variant E207M; [1],2.24 ± 0.41 pmol h-1 oocyte-1
same,R-value,"PfCRT variant E207M; E207M, CQ transport at pH 4.5 / pH 6.0",0.85 ± 0.02
same,E207M transport activity pH 4.5,"PfCRT variant E207M; pH 4.5, individual replicates, Fig 6b",1.39 pmol oocyte-1 h-1 and 1.26 pmol oocyte-1 h-1 and 2.26 pmol oocyte-1 h-1 and 2.48 pmol oocyte-1 h-1
same,E207M transport activity pH 6.0,"PfCRT variant E207M; pH 6.0, individual replicates, Fig 6b",1.61 pmol oocyte-1 h-1 and 1.40 pmol oocyte-1 h-1 and 2.48 pmol oocyte-1 h-1 and 3.48 pmol oocyte-1 h-1
same,E207M R-value,PfCRT variant E207M; ratio of activity pH 4.5 / pH 6.0,0.86 and 0.90 and 0.91 and 0.71
same,Activity at pH 4.5,PfCRT variant H180A; [2],1.14 ± 0.27 pmol h-1 oocyte-1
same,Activity at pH 6.0,PfCRT variant H180A; [2],3.12 ± 0.12 pmol h-1 oocyte-1
same,R-value,"PfCRT variant H180A; H180A, CQ transport at pH 4.5 / pH 6.0",0.36 ± 0.09
same,H180A transport activity pH 4.5,"PfCRT variant H180A; pH 4.5, single replicates, Fig 1d left",0.55 pmol oocyte-1 h-1 and 1.69 pmol oocyte-1 h-1 and 1.17 pmol oocyte-1 h-1
same,H180A transport activity pH 6.0,"PfCRT variant H180A; pH 6.0, single replicates, Fig 1d left",2.90 pmol oocyte-1 h-1 and 3.04 pmol oocyte-1 h-1 and 3.41 pmol oocyte-1 h-1
same,Activity at pH 4.5,"PfCRT variant R374A; 50 µM CQ, 1 h, mean ± SEM",0.90 ± 0.14 pmol h-1 oocyte-1
same,Activity at pH 6.0,"PfCRT variant R374A; 50 µM CQ, 1 h, mean ± SEM",3.81 ± 0.61 pmol h-1 oocyte-1
same,R-value,PfCRT variant R374A; CQ transport at pH 4.5 / pH 6.0,0.23 ± 0.03
